These results are taken from publication PMC6060874, “Alanine scan of sialorphin and its hybrids with opiorphin: synthesis, molecular modelling and effect on enkephalins degradation” (Amino Acids, 2018).

The subject of data set [1] is NEP. Put plainly: Degradation of Met-enkephalin incubated with NEP alone (without inhibitor). Type of data set: in vitro ADME, porcine. Particulars: pig, NEP enzyme extracted from porcine kidney, Met-enkephalin 0.0413 mM, NEP 5.687 nM, Tris–HCl 50 mM pH 7.4, 37 °C, 0–120 min, RP-HPLC, mean ± SEM, triplicate, read-out: t1/2, half-life of Met-enkephalin incubated with NEP alone. As to the method:
(§1) The degradation studies were performed using the NEP enzyme extracted from porcine kidney, acquired from Merck (Warsaw, Poland). Solutions of Met-enkephalin, NEP and inhibitors were prepared by dissolving them in a Tris–HCl buffer (50 mM, pH 7.4). In investigated samples, the concentrations of Met-enkephalin, inhibitors and NEP were, respectively, 0.0413 mM, 0.156 mM and 5.687 nM. The reaction was initiated by addition of enzyme to a solution-containing Met-enkephalin and inhibitor. The samples consisting of the enzyme, Met-enkephalin and inhibitors were incubated over 0, 30, 60, 90, 120 min at 37 °C in a final volume of 300 μL. The reaction was stopped at a predetermined time by placing the tube on ice and acidifying with 30 μL of a 1 M aqueous HCl solution. The aliquots were centrifuged at 14,500 rpm for 20 min. The supernatants were filtered through Millipore Millex-GV syringe filters with 0.22 μm pores (Merck, Warsaw, Poland) and analysed by RP-HPLC on a Phenomenex Gemini-NX C18 column (5 μm, 4.6 mm × 150 mm) using a linear gradient of 3–50% of [B] for 8 min at a flow rate of 2.5 ml/min. Two solvent systems were used: 0.1% TFA in water [A] and 0.1% TFA in acetonitrile [B]. The rate constants of degradation (k) and degradation half-lives (t1/2) were calculated as described elsewhere (Kamysz et al. [2016]; Perlikowska et al. [2012]). All measurements were performed in triplicate. […]

The subject of data set [2] is NEP enzyme extracted from porcine kidney. The description is as above. Particulars: printed value is 1000 × k, Met-enkephalin 0.0413 mM, NEP 5.687 nM, Tris–HCl 50 mM pH 7.4, 37 °C, 0–120 min, RP-HPLC, mean ± SEM, triplicate. Type of data set: in vitro ADME. As to the method: as §1

As to `CSCC[C@H](NC(=O)[C@H](Cc1ccccc1)NC(=O)CNC(=O)CNC(=O)[C@@H](N)Cc1ccc(O)cc1)C(=O)O` [Met-enkephalin, Met-enkephalin (Tyr–Gly–Gly–Phe–Met)], the half-life in data set [1] was 27 ± 1 min. Further, in data set [2], the “1000 × k, degradation rate of Met-enkephalin incubated with NEP alone” value amounted to 25.3 ± 1.0 min⁻¹.
